Assay results published in patent US20120077683A1, “KIT AND METHOD FOR PREDICTING CYTARABINE SENSITIVY OF PATIENT HAVING ACUTE MYELOID LEUKEMIA” (SAMSUNG ELECTRONICS CO., LTD., priority 2010, published 2012).

Legend:
[1] = tested on: patients having acute myeloid leukemia; assay: Cytarabine therapy of patients having acute myeloid leukemia, complete remission determined from number of leukocytes; type: in vivo, human; details: of 139 patients with acute myeloid leukemia, cytarabine administered according to NCCN guidelines
Description: Cytarabine sensitivity of 139 patients who had acute myeloid leukemia and were treated in Samsung Medical Center was identified. That is, cytarabine was administered to the patients according to NCCN guidelines, and the number of leukocytes was subsequently measured in each patient to determine complete remission to determine whether the cytarabine therapy was effective for the patient. The patients were then classified into one group of 121 patients having cytarabine sensitivity (responders) and the other group of 18 patients not having cytarabine sensitivity (nonresponders). In addition, blood of the patients was obtained to extract DNA by using QIAamp DNA Mini and blood Mini kits in order to determine SNPs associated with cytarabine sensitivity of the patients.

[2] = tested on: patients having acute myeloid leukemia; details: stated as known; cited from earlier work

For Nc1ccn([C@@H]2O[C@H](CO)[C@@H](O)[C@@H]2O)c(=O)n1 [cytarabine, cytosine arabinoside], the “patients having cytarabine sensitivity (responders)” value [1] is given as 121 patients, the “patients not having cytarabine sensitivity (nonresponders)” value [1] is given as 18 patients and the “patients having acute myeloid leukemia on whom administration of cytarabine is not effective” value [2] is given as “about 20%”.
